According to patent publication US20230002798A1, “PROCESS FOR THE PREPARATION OF A FERMENTABLE SUGAR COMPOSITION AND THE FERMENTATION THEREOF” (WeissBioTech GmbH, priority 2019, published 2023):

Target: Agl1 (Bifidobacterium breve, UniProt C0JP82)
Experiment: Product inhibition of pNPG hydrolysis
Details: 2 mM pNPG

For `OC[C@H]1O[C@H](O[C@H]2[C@H](O)[C@@H](O)C(O)O[C@@H]2CO)[C@H](O)[C@@H](O)[C@@H]1O` (mixture of isomers) [maltose], the “IC50 (product inhibition)” value was 100 mg/mL.
